Measurements: patent US7935525B2, “Inhibition of ATF2 activity to treat cancer” (Mount Sinai School of Medicine, priority 2001, dated 2011)
No end group written: not given here.

Legend:
FEMX melanoma cell line = test: Colony forming efficiency (CFE) resistance assay; format: cell-based, human
Experimental: (§1) Radiation resistance. Cells (500 or 1500 per well) were plated in triplicates on 6 well plates, 24 h before treatment (Ronai et al., Oncogene 1998; 16:523-531). In all cases, plating efficiency was pre-determined so that number of cell plated was normalized respectively. Colonies (greater than 50 cells per clone) were stained with crystal violet solution (3% in 10% methanol and PBS), 14 days After treatment. % of CFE in each treatment group was calculated based on total CFE formed in the respective controls (100%).

[1] = tested on: LU1205 melanoma cell line; test: Colony forming efficiency (CFE) resistance assay; format: cell-based, human
Experimental: as §1

Fas promoter = Fas promoter activity (-460 Fas promoter region); format: cell-based, human; conditions: peptide-expressing LU1205
SW1 tumors = test: Doxycycline-inducible peptide expression in existing SW1 tumors; format: in vivo, C3H mice
From the text: Constructs. ATF2 peptides were cloned into HA-penetratin pcDNA3 vector as described above. For the doxycycline inducible system peptide II was cloned in frame with HA and Penetratin into SacII and XbaI sites of the PUHD10-3 vector (Gossen M., et al., Proc. Natl. Acad. Sci. USA. 1992, 89(12):5547-51). The PeF1PrtTA vector (Gopalkrishnan R. V., et al., Nucleic Acids Res. 1999; 27(24):4775-82) places the rtTA gene under transcriptional control of the human EF-10 promoter. Replication deficient adenovirus expressing peptide II was generated by subcloning the ATF2 peptide cDNA into the corresponding adenovirus vector as previously described (Chen S. H., et al., Proc. Natl. Acad. Sci. USA 1994; 91(8):3054-7).
Derivation of stable cell lines. Selection of clones stably expressing the rtTA construct was carried out in SW-1 cells in the presence of […] of G418. After the selection period 12 single colonies were picked, expanded and analyzed for activity by assaying for Luciferase activity (Gopalkrishnan R. V., et al., Nucleic Acids Res. 1999; 27(24):4775-82). […] The positive clone, which expresses the rtTA cDNA, was contransfected with PUHDI0-3 peptide II and Pbabe Puro vectors that allow one to establish inducible expression of the respective genes (Gopalkrishnan et al., supra) and single clones were selected with […] of Puromycin. Positive clones were selected by Western blotting.
Tumor growth and metastasis evaluation in vivo. Cell lines established in culture to constitutively or inducibly express the peptide were injected into mice subcutaneously (S.C.). LU1205, FEMX and SW-1 cells that expressed control or peptide II were trypsinized, resuspended in PBS and injected SC (1×10^6) into 6-7 week old mice in the lower flank. When the tumor reached the size of about 50 mm^3, 5 μM of SB203580 was injected into four areas of the LU1205 tumors every 4 days during a 2-week period. For FEMX tumors UCN-01 (2.5 mg/kg) was fed by gavage twice a day, three times per week for a total of 2 weeks. Tumor growth was monitored every two days. […]

AP1 complex [2] = test: Transcriptional activity mediated from AP1 target sequences; format: cell-based; conditions: peptide-expressing melanoma cells
[3] = tested on: ATF2/c-Jun transcriptional activity; test: Jun2-Luciferase reporter in SW1 clones; format: cell-based, mouse
Experimental: Transient transfection and transcriptional analysis. Mouse melanoma tumors grown in culture were transfected with control vector or peptide II expressing luciferase or β-galactosidase constructs (Bhoumik et al., Clin. Cancer Res. 2001; 7(2):331-42). Transient transfection of different reporter constructs (0.5 cg) with expression vectors and pCMV-Cgal (0.25 Cg) into 5×10^5 melanoma cells was performed using Lipofectamine™ (Life Technologies-BRL). Transfection of the Jun2-luciferase construct permitted us to monitor activity of ATF2 and c-Jun. Jun2-Luc and TRE-Luc constructs were previously described (van Dam H., et al., EMBO J. 1993; 12:479-487; and van Dam H., et al., EMBO J. 1995; 14:1798-1811). Luciferase activity was determined using the Luciferase assay system (Promega®, Madison, Wis.) and normalized on the basis of β-galactosidase (β-Gal) levels in transfected cells. Proteins were prepared for β-Gal and Luciferase analysis at the selected time points after transfection.

Jun2-Luc = Jun2-Luc reporter in ATF2 null cells; format: cell-based
JNK = test: In vitro phosphorylation of the peptide; format: biochemical
p38 = p38 (Homo sapiens, UniProt Q16539); test: In vitro phosphorylation of the peptide; format: biochemical
FAS = test: Cell surface FAS receptor by FACS in SW1 cells; format: cell-based, mouse; conditions: peptide-expressing SW1 vs control
Experimental: Electrophoretic mobility shift assays were performed as described. (Ivanov and Ronada, J Biol Chem 1999; 274(20):14079-89). GST binding assays were performed with GST-peptide II as described (Adler et al., Proc Natl Acad Sci USA 1995; 92 10585-9). SW1 cells expressing control vector or peptide II were subjected to FACS analysis following their incubation with antibodies to the cell surface receptor of FAS as described above.

AP1 complex [4] = conditions: previous studies; cited from earlier work

p38, sequence (Q16539 whole entry): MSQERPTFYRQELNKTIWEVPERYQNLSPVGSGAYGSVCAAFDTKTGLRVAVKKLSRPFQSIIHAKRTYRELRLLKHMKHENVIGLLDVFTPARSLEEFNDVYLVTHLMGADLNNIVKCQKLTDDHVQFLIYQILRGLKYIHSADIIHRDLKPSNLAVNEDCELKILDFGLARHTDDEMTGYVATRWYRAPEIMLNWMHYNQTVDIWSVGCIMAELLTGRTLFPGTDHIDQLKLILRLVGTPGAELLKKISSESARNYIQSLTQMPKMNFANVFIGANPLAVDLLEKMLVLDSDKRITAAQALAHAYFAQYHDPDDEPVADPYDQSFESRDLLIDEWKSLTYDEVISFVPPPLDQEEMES

With “peptide II: N-terminal polypeptide fragment of ATF2, amino acid residues 50-100, expressed from pcDNA3 with HA-penetratin tag (EMTLKFGPARNDSVIVADQTPTPTRFLKNCEEVGLFNELASPFENEFKKAS; also: HA-penetratin tag, position not given here; UniProt P15336 50-100, looked up, fragment)” as the substance, how does the “decrease in the fraction of CFE” value (FEMX melanoma cell line; peptide-expressing FEMX vs FEMX neo, 1 µM MMC, 14 days) read?
The value was no more than 10 fold.

And the “decrease in % of CFE” value (FEMX melanoma cell line; peptide-expressing FEMX vs neo control, UV-C 9-36 J/m^2, colonies at 14 days)?
The value was “up to 10 fold”.

What about the “effects on the sensitivity to MMC (CFE)” value ([1]; peptide-expressing LU1205, MMC) of the same substance?
Its value is “much less pronounced effects”.

And the “decrease in the % of CFE” value ([1]; peptide-expressing LU1205 vs neo control, UV-C 9-36 J/m^2, colonies at 14 days)?
Its value is no more than 3 fold.

What about the “sensitivity to NCS (CFE)” value ([1]; peptide-expressing melanoma cells, NCS) of the same substance?
The value was “did not reveal substantial differences”.

What about the “Fas promoter mediated transcription” value (Fas promoter) of the same substance?
Its value is “increase in Fas-mediated transcription”.

And the “decrease in the growth rate of tumors” value (SW1 tumors; doxycycline in drinking water from 90 mm^3, 32 days)?
Its value is roughly 2 fold.

And the “reduction of tumor growth rate” value (SW1 tumors; inducible expression via doxycycline)?
Its value is 50%.

What about the “degree of apoptosis in tumors (tunnel assay)” value (SW1 tumors; tumors from doxycycline-fed mice) of the same substance?
The value was “increase in degree of apoptosis”.

What about the “transcriptional activities mediated by AP1 target sequences” value (AP1 complex [2]) of the same substance?
Its value is “lower”.

And the “decrease in basal levels of ATF2 transcriptional activities” value ([3]; SW1 clones constitutively expressing peptide)?
The value was 5 fold.

What about the “ATF2 transcriptional activities in response to UV-treatment” value ([3]; SW1 clones, UV) of the same substance?
Its value is “decrease”.

What about the Jun2-Luc activities (Jun2-Luc) of the same substance?
The Jun2-Luc activities was “did not affect”.

What about the “phosphorylation of the peptide by JNK” value (JNK) of the same substance?
The value was “Neither JNK nor p38 was found capable of phosphorylating”.

And the “phosphorylation of the peptide by p38” value (p38)?
The value was “Neither JNK nor p38 was found capable of phosphorylating”.

What about the “level of FAS on the cells” value (FAS) of the same substance?
The value was “greatly increased”.

And the “inhibition of transcriptional activity mediated from the AP1 complex” value (AP1 complex [4])?
The value was 3 fold.
